From US20080081781A1, “Methods and compositions for the treatment of metabolic syndrome” (priority 2004, published 2008) come the findings set out here.

Structures are written as SMILES.

The nature of one data set: in vivo. Also on record: species or system canine (beagle). The note with it: beagle, dog. The method, then: In parallel animal model studies, four canine (beagle) subjects were given 45 mg/kg of berberine orally. Serum concentrations of the drug were determined by HPLC at 2 and 3 hours after administration. […] After the berberine had cleared the system, the same dog was then administered 700 mg/kg of berberine and blood samples were taken 2, 3, 5, 7, 9 and 24 hours after administration resulting in concentrations of 21.51, 44.89, 49.54, 36.35, 27.83, and 16.01 ηg/ml respectively.

Data set [1] in a line: Excretion of berberine in rats (urine, fecal matter, gall bladder secretions). Type of data set: in vivo, rat. Particulars: rat, in vivo, iv. The method, then:
In a final series of animal model studies, rats were orally administered 3H-berberine. Forty-eight hours after administration, excretions were tested for the presence of berberine. 2.7% of the oral dose was measured in the urine and 86% of the oral dose was measured in the fecal matter.
Rats received intravenous berberine (9.25 MBq/kg). Six days accumulation of rat urine and fecal secretions were measured for the presence of berberine. 73% of the intravenous dose of the berberine was found in the accumulated urine in both metabolized and unmetabolized forms. 10.9% of the intravenous dose was found in the fecal matter.
Three rats were given berberine (9.25 MBq/kg) intravenously. After 24 hours, gall bladder secretions were collected and evaluated for the presence of berberine. There was 10.1±0.9% (x±SD, n=3) of berberine in the gall bladder secretions.

A further data set relates to InsR mRNA. The data set is described as follows: InsR mRNA expression in HepG2 cells (real time RT-PCR, slot blot). Particulars: HepG2, 2.5 μg/ml for 8 hours. Type of data set: cell-based, human. The method, then:
Cells from the human hepatoma cell line HepG2 were incubated with 0, 1, 2.5, 5, 10 or 15 μg/ml of berberine respectively for eight hours. Total cellular RNA was isolated using the Ultraspec RNA lysis solution (Biotecxs Laboratory, Houston, Tex.) following the vender's protocols. […] of the RNA sample was transferred to nitrocellulose membrane via a slot-blot apparatus (Schleicher & Schuell, Keene, N.H.). The blots were fixed by baking at 80° C. for 2 h, followed by hybridization to a 0.89-kb long, 32P-labelled human InsR cDNA probe. The same membranes were then stripped and re-hybridized to a human ACTB probe as internal control. Quantitative real time RT-PCR assays were also done. For the RT-PCR assay, total cellular RNA was reverse-transcribed into cDNA using the Reverse Transcription System (Promega, Madison, Wis.). Quantitative real-time PCR were performed with these cDNA using the Applied Biosystems 7500 Real-Time PCR System and TaqMan® Universal PCR Master Mix (Applied Biosystems, Foster City, Calif.). […] 2.5 μl of cDNA sample, 12.5 μl of Universal PCR Master Mix, and 1.25 μl of TaqMan® Gene Expression Assay reagent were mixed in a 25 μl reaction system, and the comparative CT method was used in relative gene quantification using the TaqMan® SDS analysis software. […]

In another data set the test system is HepG2 cells. Description: Glucose consumption of HepG2 cells with insulin, with or without InsR siRNA. Type of data set: cell-based, human. Particulars: […] berberine, 0.5 nM insulin, 12 hr. The method, then:
Human InsR siRNA duplex, non-specific control siRNA, siRNA transfection reagent and siRNA transfection medium were obtained from Santa Cruz Biotechnology, Inc. (Santa Cruz, Calif.) and the vendor's siRNA transfection procedure was followed. Briefly, HepG2 cells were seeded onto six-well plates in antibiotic-free RPMI-1640 medium containing 10% fetal bovine serum (FBS). After 60-80% confluence of monolayer, FBS containing medium was discarded and cells were washed with siRNA transfection medium (2 mVwell). 0.8 ml of siRNA transfection medium containing 6 μl of human InsR siRNA duplex (or control siRNA) and 6 ld^1 of siRNA transfection reagent were well mixed at room temperature for 30 min, followed by loading onto washed HepG2 cells. After an 8 hr incubation, the transfection mixture was removed and fresh RPMI-1640 medium supplied with 10% FBS was added. The cells were then incubated for 24 hr. Then, the culture medium was replaced with fresh medium and incubated for an additional 24 hr. At the end of incubation, FBS containing medium was removed and replaced with serum-free fresh RPMI-1640 medium. […] After 12 hr incubation, the amount of glucose in the sample medium was determined. The glucose consumption was calculated according to the following formula: glucose level of the fresh RPMI-1640 minus glucose level of the used RPMIN-1640. […]

A further data set deals with InsR gene promoter. Description: InsR promoter activity, pGL3-1.5kIRP transfected HepG2 cells. Format: cell-based, human. The note with it: pGL3-1.5kIRP transfected HepG2, 10 μg/ml, 8 h. The method, then:
The InsR promoter luciferase gene fusion plasmid (pGL3-1.5kIRP) was kindly provided by Dr. Araki E of the Graduate School of Medical Sciences, Kumamoto University, Honjo, Kumamoto, Japan.
After overnight incubation, the cells were treated with DMSO as the solvent control or with 0, 1, 2.5, 5, 7.5 and 10 μg/ml berberine for 8 h. Cell lysates were prepared and luciferase activities were measured using the Luciferase Reporter Gene Assay (Roche Applied Science). The experiment was repeated 4 times.

Compound `COc1ccc2cc3[n+](cc2c1OC)CCc1cc2c(cc1-3)OCO2` [berberine] registered a concentration at 2 hours in “in vivo” (280 mg/kg) of 31.4 µg/mL. Besides, the serum concentration in “in vivo” (280 mg/kg, 3 hours) is listed as 22.6 ηg. In the data set “in vivo” (700 mg/kg), the concentration at 2 hours amounted to 0.0215 µg/mL, the concentration at 3 hours came to 0.0449 µg/mL, the concentration at 5 hours amounted to 0.0495 µg/mL and the concentration at 7 hours worked out at 0.0364 µg/mL. In “in vivo” (700 mg/kg), this compound returned a concentration at 9 hours of 0.0278 µg/mL and a concentration at 24 hours of 0.016 µg/mL. In data set [1], the “intravenous dose found in accumulated urine (metabolized and unmetabolized forms)” value was 73%; the “intravenous dose found in the fecal matter” value was determined as 10.9%. Also, the “increase of InsR mRNA” value in the data set on InsR mRNA is listed as 40%. Besides, in the data set with HepG2 cells, the “glucose consumption of human hepatic cells treated with insulin” value is “significantly increased”. Moreover, the “elevation of Luc mRNA level” value in the data set on InsR gene promoter is reported as 2.5 fold.
